The values below come from patent publication US5900231A, “Silicone-containing derivatives of salicylic acid which have desquamating properties” (L'Oreal, priority 1996, dated 1999).

Bounds are passed on as bounds.

For one data set, the system named is keratinocytes. Kind of data set: in vitro test of the efficacy of the desquamation on keratinocytes (release of corneocytes, flow cytometry). Type of data set: cell-based. The conditions noted are these: for cell detachment index (difference between T60 and T0; release of corneocytes relative to control): 60 minutes after addition, relative to control without test product, equal concentrations; for desquamating activity compared with 5-n-octanoylsalicylic acid: at a concentration equal to that of 5-n-octanoylsalicylic acid. As for the experimental part:
An in vitro test of the efficacy of the desquamation was carried out on keratinocytes using 5-n-octanoylsalicylic acid (compound C1), 2-hydroxy4-(3-trimethylsilanylpropyloxy)benzoic acid (compound C2) and 2-hydroxy-5-(3-trimethylsilanylpropyloxy)benzoic acid (compound C3). C1 is a known powerful desquamating active agent, but not part of the present invention. C2 and C3 are compounds of the present invention.
The principle of the test rests on the fact that desquamation is known to induce the release of corneocytes. The desquamating power of the test product should be proportionately greater the larger the number of corneocytes released.
The test procedure was as follows: keratinocytes were obtained by separating the epidermis from skin biopsies, and these keratinocytes were dissociated by enzymatic action with trypsin and cultured at a concentration of 2×10^5 cells/ml. Growth and differentiation of the keratinocytes were obtained by culturing for 10 to 20 days in specific medium.
Next, after removing the culture medium, the test product was added and the activity of the product evaluated. To do this, two samples were taken at T0 and T60, i.e., before addition of the product and 60 minutes after this addition, and the samples thus taken were analysed on a flow cytometer to count the population of corneocytes.
The cell detachment index was determined by the difference between T60 and T0.
The same measurement was taken for a control containing no test product since the experiment inevitably produces the release of corneocytes, even in the absence of active agent. The variation of the control arbitrarily set the standard at 100%.
On the technique in general: In flow cytometry, cells or beads pass a laser one at a time.

Data set [1] is described as follows: solubility in MIGLYOL 812 (mixture of caprylic acid and capric acid triglyceride). Type of data set: physicochemical. As for the experimental part: The solubility of the silicon-containing derivatives of salicylic acid according to the invention in organic media was evaluated by comparing the solubility of 5-n-octanoylsalicylic acid with inventive compounds:
in a mixture of caprylic acid and capric acid triglyceride, marketed under the name MIGLYOL 812 by the company Huls.

Take `CCCCCCCC(=O)c1ccc(O)c(C(=O)O)c1` [Compound C1, 5-n-octanoylsalicylic acid, reference compound]: the “cell detachment index (difference between T60 and T0; release of corneocytes relative to control)” value in the data set on keratinocytes was 103%. For the same compound, the “Solubility at room temperature” value in data set [1] was < 1.5%.
As for `C[Si](C)(C)CCCOc1ccc(C(=O)O)c(O)c1` [Compound C2, 2-hydroxy-4-(3-trimethylsilanylpropyloxy)benzoic acid], in the data set with keratinocytes, the “cell detachment index (difference between T60 and T0; release of corneocytes relative to control)” value was 157%; the “desquamating activity compared with 5-n-octanoylsalicylic acid” value is on record as “much more active than the latter”. Further, in data set [1], the “Solubility at room temperature” value was determined as 2%.
Regarding `C[Si](C)(C)CCCOc1ccc(O)c(C(=O)O)c1` [Compound C3, 2-hydroxy-5-(3-trimethylsilanylpropyloxy)benzoic acid], in the data set on keratinocytes, the “cell detachment index (difference between T60 and T0; release of corneocytes relative to control)” value amounted to 135%; the “desquamating activity compared with 5-n-octanoylsalicylic acid” value is “much more active than the latter”. Further, the “Solubility at room temperature” value in data set [1] amounted to 7%.
Turning to `CC(COc1ccc(C(=O)O)c(O)c1)C[Si](C)(O[Si](C)(C)C)O[Si](C)(C)C` (stereo not shown) [Compound C4, 2-hydroxy-4-[2-methyl-3-[1,3,3,3-tetramethyl-1-[(trimethyl-silyl)oxy]disiloxanyl]propyloxy]benzoic acid], the “Solubility at room temperature” value in data set [1] amounted to 6%.
`CC(Cc1cccc(C(=O)O)c1O)C[Si](C)(O[Si](C)(C)C)O[Si](C)(C)C` (stereo not shown) [Compound C5, 2-hydroxy-3-[2-methyl-3-[1,3,3,3-tetramethyl-1-[(trimethylsilyl)oxy]disiloxanyl]propyl]benzoic acid]: the “Solubility at room temperature” value in data set [1] is > 20%.
